Data published in US8394825B2, “Compound” (Sterix Limited, priority 2007, dated 2013).

System: not given
Experiment: not given
Settings: not given

| Structure (SMILES) | melting point [°C] |
| --- | --- |
| COc1cc2c(cc1OCc1ccccc1)CCN(Cc1cccc(O)c1)C2 [compound 30, 6-Benzyloxy-2-(3-hydroxybenzyl)-7-methoxy-1,2,3,4-tetrahydroisoquinoline] | 78 to 79 |
| COC(=O)c1ccccc1S(=O)(=O)N1CCc2cc(O)c(OC)cc2C1 [186A, 7-Methoxy-2-(2-(methoxycarbonyl)benzenesulfonyl)-6-hydroxy-1,2,3,4-tetrahydroisoquinoline] | 134 to 138 |
| COc1cc(OC)c(CN2CCc3cc(O)c(OC)cc3C2)c(OC)c1 [F3, 7-Methoxy-2-(2,4,6-trimethoxybenzyl)-1,2,3,4-tetrahydroisoquinolin-6-ol] | 150 to 151 |
| COc1cc2c(cc1OCc1ccccc1)CCN(Cc1cc(F)cc(F)c1)C2 [F5, 6-Benzyloxy-2-(3,5-difluorobenzyl)-7-methoxy-1,2,3,4-tetrahydroisoquinoline] | 116 to 117 |
| COc1cc2c(cc1OCc1ccccc1)CCN(Cc1ccccn1)C2 [compound 12, 6-Benzyloxy-7-methoxy-2-(pyridin-2-ylmethyl)-1,2,3,4-tetrahydroisoquinoline] | 73 to 74 |
| COc1cc2c(cc1O)CCN(Cc1ccccn1)C2 [compound 48, 6-Hydroxy-7-methoxy-2-(pyridin-2-ylmethyl)-1,2,3,4-tetrahydroisoquinoline] | 137 to 138 |
| COc1ccc(C(=O)N2CCc3cc(O)ccc3C2)c(OC)c1 [B8, 2-(2,4-Dimethoxybenzoyl)-1,2,3,4-tetrahydroisoquinolin-6-ol] | 62 to 87 |
| COc1cc2c(cc1OCc1ccccc1)CCCN(Cc1cc(OC)c(OC)c(OC)c1)C2=O [compound 314, 7-Benzyloxy-8-methoxy-2-(3,4,5-trimethoxybenzyl)-2,3,4,5-tetrahydro-1H-benzo[c]azepin-1-one] | 134 to 135 |
| COc1ccc(CN2C(=O)CCc3cc(O)c(OC)cc32)cc1 [compound 292, 6-Hydroxy-7-methoxy-1-(4-methoxybenzyl)-3,4-dihydro-1H-quinolin-2-one] | 168 to 169 |
| COc1ccc(CCN2CCc3cc(O)c(OC)cc3C2)cc1 [compound 46, 6-Hydroxy-7-methoxy-2-(4-methoxyphenethyl)-1,2,3,4-tetrahydroisoquinoline] | 170 to 171 |
| COc1cc2c(cc1O)CCN(Cc1cccc(C(C)=O)c1)C2 [compound 62, 6-Hydroxy-7-methoxy-2-(3-acetylbenzyl)-1,2,3,4-tetrahydroisoquinoline] | 132 to 134 |
| COc1cc2c(cc1O)CC(C)N(Cc1cc(OC)c(OC)c(OC)c1)C2 (stereo not shown) [compound 219, 2-(3,4,5-Trimethoxybenzyl)-1,2,3,4-tetrahydro-7-methoxy-3-methylisoquinolin-6-ol] | 127 to 132 |
| COc1cc2c(cc1OCc1ccccc1)CCN(C(=O)c1cc(OC)c(OC)c(OC)c1)C2 [compound 111, 6-Benzyloxy-7-methoxy-2-(3,4,5-trimethoxybenzoyl)-1,2,3,4-tetrahydroisoquinoline] | 63 to 64 |

Now from value to molecule:

| melting point [°C] | Structure (SMILES) |
| --- | --- |
| 198 to 200 | COc1cc2c(cc1O)CC(C)(C)N(C(=O)c1cc(OC)c(OC)c(OC)c1)C2C (stereo not shown) [compound 246, (3,4-Dihydro-6-hydroxy-7-methoxy-1,3,3-trimethylisoquinolin-2(1H)-yl)(3,4,5-trimethoxyphenyl)methanone] |
| 111 to 115 | COc1cccc(CN2CCc3cc(O)ccc3C2)c1OC [B21, 2-(2,3-Dimethoxybenzyl)-1,2,3,4-tetrahydroisoquinolin-6-ol] |
| 101 to 102 | CCOC1CN(Cc2ccccc2OC)Cc2cc(OC)c(O)cc21 (stereo not shown) [F34, 4-Ethoxy-7-methoxy-2-(2-methoxybenzyl)-1,2,3,4-tetrahydroisoquinolin-6-ol] |
| 63 to 66 | COc1cc2c(cc1OCc1ccccc1)CCN(Cc1cccc(NC(C)=O)c1)C2 [compound 35, 2-(3-Acetamidobenzyl)-6-(benzyloxy)-7-methoxy-1,2,3,4-tetrahydroisoquinoline] |
| 137 to 138 | COc1cccc(CN2Cc3cc(OC)c(O)cc3C(O)C2)c1 (stereo not shown) [F28, 7-Methoxy-2-(3-methoxybenzyl)-1,2,3,4-tetrahydroisoquinoline-4,6-diol] |
| 150 to 154 | CCOc1ccc(CN2CCc3cc(O)ccc3C2)cc1OCC [B22, 2-(3,4-Diethoxybenzyl)-1,2,3,4-tetrahydroisoquinolin-6-ol] |

System: DU145 cells
Experiment: Antiproliferative assay in DU145 cells, WST-1 cell proliferation assay, 96 hours (GI50)
Type: cell-based
Settings: 96 hours post-treatment, 50% growth inhibition, read-out: DU-145 GI50
Method: Antiproliferative assays. DU145 cells were seeded into 96 well microtiter plates (5000 cells/well) and treated with […] of compounds or with vehicle control. At 96 hours post-treatment, live cell counts were determined by WST-1 cell proliferation assay (Roche, Penzberg, Germany), as per manufacturer's instructions. Viability results were expressed as a percentage of mean control values resulting in the calculation of the 50% growth inhibition (GI50). All experiments were performed in triplicate.

| GI50 [µM] | Structure (SMILES) |
| --- | --- |
| > 100 | COc1cc2c(cc1OS(N)(=O)=O)CCN(S(=O)(=O)c1ccccc1OC)C2=O [compound 204, 7-Methoxy-2-(2-methoxy-benzenesulfonyl)-6-O-sulfamoyl-3,4-dihydro-2H-isoquinolin-1-one] |
| > 100 | COc1ccc(S(=O)(=O)N2CCc3cc(OS(N)(=O)=O)c(OC)cc3C2=O)cc1 [compound 206, 7-Methoxy-2-(4-methoxy-benzenesulfonyl)-6-O-sulfamoyl-3,4-dihydro-2H-isoquinolin-1-one] |
| > 100 | COc1cccc(S(=O)(=O)N2CCc3cc(OS(N)(=O)=O)c(OC)cc3C2=O)c1 [compound 205, 7-Methoxy-2-(3-methoxy-benzenesulfonyl)-6-O-sulfamoyl-3,4-dihydro-2H-isoquinolin-1-one] |

Same assay, conditions: 96 hours post-treatment, triplicate, read-out: DU-145 GI50

| Structure (SMILES) | GI50 [µM] |
| --- | --- |
| COc1cc2c(cc1OS(N)(=O)=O)CCN(S(=O)(=O)c1cccc(C(F)(F)F)c1)C2 [compound 189, 7-Methoxy-6-O-sulfamoyl-2-(3-trifluoromethyl-benzenesulfonyl)-1,2,3,4-tetrahydroisoquinoline] | 10 to 50 |
| COc1cc2c(cc1OS(N)(=O)=O)CCN(Cc1cccc(NC(C)=O)c1)C2 [compound 85, 2-(3-Acetamidobenzyl)-7-methoxy-6-O-sulfamoyl-1,2,3,4-tetrahydroisoquinoline] | > 100 |
| COc1cc2c(cc1OS(N)(=O)=O)CCN(S(=O)(=O)c1cccc(C)c1)C2 [compound 191, 7-Methoxy-6-O-sulfamoyl-2-(toluene-3-sulfonyl)-1,2,3,4-tetrahydroisoquinoline] | 10 to 50 |
| COc1cc2c(cc1OS(N)(=O)=O)CCN(Cc1cccc(OC(F)(F)F)c1)C2 [compound 102, 7-Methoxy-2-(3-trifluoromethoxybenzyl)-6-O-sulfamoyl-1,2,3,4-tetrahydroisoquinoline] | < 10 |
| COc1cc2c(cc1OS(N)(=O)=O)CCN(S(=O)(=O)c1ccccc1C#N)C2 [compound 193, 2-(2-Cyano-benzenesulfonyl)-7-methoxy-6-O-sulfamoyl-1,2,3,4-tetrahydroisoquinoline] | < 10 |
| COc1ccccc1CN1CCc2cc(OS(N)(=O)=O)c(OC)cc2C1 [compound 75, 7-Methoxy-2-(2-methoxybenzyl)-6-O-sulfamoyl-1,2,3,4-tetrahydroisoquinoline] | < 10 |
| COc1cc2c(cc1OS(N)(=O)=O)CCN(Cc1cccc(OS(N)(=O)=O)c1)C2 [compound 79, 7-Methoxy-2-(3-(O-sulfamoyl)benzyl)-6-O-sulfamoyl-1,2,3,4-tetrahydroisoquinoline] | 10 to 50 |
| COc1cc2c(cc1OS(N)(=O)=O)CCN(S(=O)(=O)c1cccc(Cl)c1)C2 [compound 190, 2-(3-Chloro-benzenesulfonyl)-7-methoxy-6-O-sulfamoyl-1,2,3,4-tetrahydroisoquinoline] | 10 to 50 |

More lines, now with the values ahead:

| GI50 [µM] | Structure (SMILES) |
| --- | --- |
| 50 to 100 | COc1ccc(CN2CCc3cc(OS(N)(=O)=O)c(OC)cc3C2)cc1 [compound 73, 7-Methoxy-2-(4-methoxybenzyl)-6-O-sulfamoyl-1,2,3,4-tetrahydroisoquinoline] |
| < 10 | COc1cccc(CN2CCc3cc(OS(N)(=O)=O)c(OC)cc3C2)c1 [compound 72, 7-Methoxy-2-(3-methoxybenzyl)-6-O-sulfamoyl-1,2,3,4-tetrahydroisoquinoline] |
| 50 to 100 | COc1cc2c(cc1OS(N)(=O)=O)CCN(S(=O)(=O)c1cccc(OC(F)(F)F)c1)C2 [compound 192, 7-Methoxy-6-O-sulfamoyl-2-(3-trifluoromethoxy-benzenesulfonyl)-1,2,3,4-tetrahydroisoquinoline] |
| < 10 | COc1cc2c(cc1OS(N)(=O)=O)CCN(Cc1cccc(OC(C)C)c1)C2 [compound 104, 2-(3-Isopropoxybenzyl)-7-methoxy-6-O-sulfamoyl-1,2,3,4-tetrahydroisoquinoline] |
| < 10 | COc1cc(CN2CCc3cc(OS(N)(=O)=O)c(OC)cc3C2)cc(OC)c1 [compound 76, 2-(3,5-Dimethoxybenzyl)-7-methoxy-6-O-sulfamoyl-1,2,3,4-tetrahydroisoquinoline] |
| 50 to 100 | COc1cccc(S(=O)(=O)N2CCc3cc(OS(N)(=O)=O)c(OC)cc3C2)c1 [compound 188, 7-Methoxy-2-(3-methoxy-benzenesulfonyl)-6-O-sulfamoyl-1,2,3,4-tetrahydroisoquinoline] |

Same assay, conditions: Homo sapiens, DU-145, 96 hours post-treatment, 50% growth inhibition

| GI50 [µM] | Structure (SMILES) |
| --- | --- |
| > 100 | COc1cc2c(cc1OS(N)(=O)=O)CC(C)(C)N(Cc1cc(OC)c(OC)c(OC)c1)C2 [compound 231, 2-(3,4,5-Trimethoxybenzyl)-1,2,3,4-tetrahydro-7-methoxy-3,3-dimethylisoquinolin-6-yl sulfamate] |

Same assay, conditions: Homo sapiens, DU-145, 96 hours post-treatment, triplicate

| GI50 [µM] | Structure (SMILES) |
| --- | --- |
| > 100 | COc1cc2c(cc1O)CCN(Cc1cccc(NC(C)=O)c1)C2 [compound 50, 6-Hydroxy-7-methoxy-2-(3-acetamidobenzyl)-1,2,3,4-tetrahydroisoquinoline] |
| < 10 | COc1cc(OC)cc(C(=O)N2CCc3cc(O)c(OC)cc3C2)c1 [compound 119, 2-(3,5-Dimethoxybenzoyl)-6-hydroxy-7-methoxy-1,2,3,4-tetrahydroisoquinoline] |
| 10 to 50 | COc1ccc(OC)c(CN2CCc3cc(OCc4ccccc4)c(OC)cc3C2)c1 [compound 21, 6-Benzyloxy-7-methoxy-2-(2,5-dimethoxybenzyl)-1,2,3,4-tetrahydroisoquinoline] |
